Among the data in the Deep4Chem optical property database are fluorescence lifetime values, retold here.

The data set can be described thus: solvent given as SMILES.

In the case of `CC1(C)c2ccccc2N(c2ccc3nc4c5ccc(N6c7ccccc7C(C)(C)c7ccccc76)cc5c5cc(N6c7ccccc7C(C)(C)c7ccccc76)ccc5c4nc3c2)c2ccccc21`, the fluorescence lifetime (in c1cc(-c2cccc(-n3c4ccccc4c4ccccc43)c2)cc(-n2c3ccccc3c3ccccc32)c1) was 32 ns.
In the case of `CCN(CC)c1ccc(/N=N/c2nc3ccc([N+](=O)[O-])cc3s2)cc1`, the fluorescence lifetime reads like this: (in CC#N) 6.03 ns; (in ClCCl) 8.14 ns.
With `CC1(C)c2cccc(-c3nc(-c4ccccc4)nc(-c4ccccc4)n3)c2Oc2c(N3c4ccccc4Sc4ccccc43)cccc21`, the fluorescence lifetime (in Cc1ccccc1) came to 2.8 ns.
Turning to `CCN(CC)c1ccc(/N=N/c2nc3ccc(Br)cc3s2)cc1`, the fluorescence lifetime was 3.03 ns (in CC#N) and 2.75 ns (in ClCCl).
Consider `CC1=CC(c2ccc3cc(N(C)C)ccc3c2)=[O+][B-](F)(F)O1`, for which the fluorescence lifetime by setting is: (in C1CCOC1) 3.56 ns; (in CC#N) 1.02 ns; (in CC(C)=O) 2.72 ns; (in CS(C)=O) 1.47 ns; (in Cc1ccccc1) 4.08 ns; (in ClC(Cl)Cl) 3.46 ns. This molecule showed a fluorescence lifetime (in ClCCl) of 3.69 ns.
Turning to `CC1(C)c2cc(C#N)ccc2-c2ccc(N3c4ccccc4Oc4ccccc43)cc21`, the fluorescence lifetime reads like this: (in C1CCCCC1) 1.89 ns; (in C1CCOC1) 9.74 ns; (in CC#N) 1.23 ns; (in Cc1ccccc1) 4.94 ns; (in ClC(Cl)Cl) 11.6 ns.
`CCCCCCCCCCCCN1C(=O)c2c(c3ccc4cc(-c5ccc(-c6ccccc6)cc5)c(OC)cc4c3c3c2ccc2cc(-c4ccc(-c5ccccc5)cc4)c(OC)cc23)C1=O` had a fluorescence lifetime (in ClCCl) of 6.19 ns.
In the case of `c1ccc(-c2nc(-c3ccccc3)nc(-c3cc(-n4c5ccccc5c5ncccc54)c(-n4c5ccccc5c5ccccc54)c(-n4c5ccccc5c5ncccc54)c3)n2)cc1`, the fluorescence lifetime (in O=P(c1ccccc1)(c1ccccc1)c1ccccc1Oc1ccccc1P(=O)(c1ccccc1)c1ccccc1) came to 6 ns.
`CCOC(=O)C(C(=O)OCC)C1=[N+]2C(=C(c3ccc(C)cc3)c3ccc(C(C(=O)OCC)C(=O)OCC)n3[B-]2(F)F)C=C1`: the fluorescence lifetime reads like this: (in C1CCCCC1) 3.15 ns; (in C1CCOC1) 2.82 ns; (in CCOC(C)=O) 2.5 ns; (in CO) 2.18 ns; (in Cc1ccccc1) 4.14 ns; (in ClC(Cl)Cl) 3.62 ns.
Consider `CCC1=C(C)C2C(c3ccc(-c4ccc(-c5nc6c7ccccc7c7ccccc7c6n5-c5ccc(C(C)(C)C)cc5)cc4)cc3)c3c(C)c(CC)c(C)n3[B-](F)(F)[N+]2=C1C` (configuration not stated), for which the fluorescence lifetime (in ClC(Cl)Cl) came out at 17 ns.
Turning to `Cc1ccc(-c2nc(-c3ccc(-c4nc(-c5ccc(C)cc5)c(-c5ccc(C)cc5)[nH]4)cc3)[nH]c2-c2ccc(C)cc2)cc1`, the fluorescence lifetime (in CS(C)=O) came to 1.07 ns.
As for `COc1ccc(C(=O)c2c(C)c3ccc4cccc5c6cccc7ccc2c(c76)c3c45)cc1`, for the setting “in ClCCl”, the fluorescence lifetime turned out to be 5.6 ns.
On to `O=C(O)CCCCCn1c2ccccc2c(=O)c2ccccc21`, for which the fluorescence lifetime (in O) was determined as 14.2 ns.
Take `CCc1ccc(-n2c3ccccc3c3cc4c(cc32)c2ccccc2n4-c2ccc(CC)cc2)cc1`: the fluorescence lifetime (in ClC(Cl)Cl) was determined as 3.62 ns.
Regarding `CC1=C(c2ccc(N(c3ccccc3)c3ccccc3)cc2)C(C)=[N+]2C1=C(c1c(-c3ccccn3)nc3ccccn13)c1c(C)cc(C)n1[B-]2(F)F`, the fluorescence lifetime (in ClCCl) was found to be 0.2 ns.
As for `CC(=O)Nc1ccc2c3cccc4cccc(c5cccc1c52)c43`, the fluorescence lifetime (in CCOC(C)=O) is 3.8 ns and the fluorescence lifetime (in CS(C)=O) is 4.5 ns.
As to `ClP1(Cl)=N[P@](Cl)(Oc2ccc3ccc4cccc5ccc2c3c45)=N[P@@](Cl)(Oc2ccc3ccc4cccc5ccc2c3c45)=N1`, the fluorescence lifetime (in ClCCl) worked out at 3.02 ns.
Turning to `CC(=O)c1nc(-c2ccc(N(C)C)cc2)oc1C`, the fluorescence lifetime turned out to be 1.91 ns (in CC#N); 1.66 ns (in CCO); 1.87 ns (in CCOC(C)=O); 1.64 ns (in CCOCC); 3.68 ns (in ClCCl).
Where the note is “in ClCCl”, `COC(=O)c1ccc(Oc2ccc3c4c(cccc24)C(=O)N(c2c(C(C)C)cccc2C(C)C)C3=O)cc1` returned a fluorescence lifetime of 3.37 ns.
`C[Si](C)(C)c1cccc2c(C#N)cccc12`: the fluorescence lifetime (in C1CCCCC1) stood at 8 ns.
Take `COC(=O)C(Cc1ccc2oc(-c3ccc(Nc4ccccc4)cc3)nc2c1)NC(=O)OC(C)(C)C` (configuration not stated): the fluorescence lifetime is 1.23 ns (in C1CCCCC1); 2.68 ns (in C1CCOC1); 1.83 ns (in C1COCCO1); 2.75 ns (in CC1CCCO1); 1.98 ns (in CC1COC(=O)O1); 2.26 ns (in CC#N). The fluorescence lifetime was 2.96 ns (in CC(C)=O); 1.01 ns (in CC(C)CC(C)(C)C); 2.23 ns (in CC(C)CO); 2.43 ns (in CC(C)O); 2.48 ns (in CC(C)OC(C)C); 0.54 ns (in CC(O)CO). In addition, the fluorescence lifetime (in CCC(C)CC) came to 1.03 ns; the fluorescence lifetime (in CCCCC) worked out at 1.14 ns; the fluorescence lifetime (in CCCCCC) is 1.02 ns; the fluorescence lifetime (in CCCCCCCCC) was 1.06 ns; the fluorescence lifetime (in CCCCCCCCCC) stood at 1.09 ns; the fluorescence lifetime (in CCCCCCCO) came out at 2.23 ns. In addition, the fluorescence lifetime turned out to be 2.41 ns (in CCCCCCO); 2.89 ns (in CCCCCO); 2 ns (in CCCCO); 0.8 ns (in CCO); 2.46 ns (in CCOC(C)=O); 2.27 ns (in CCOCC). For the same molecule, the fluorescence lifetime (in CN(C)C=O) was found to be 2.45 ns; the fluorescence lifetime (in CO) was 0.43 ns; the fluorescence lifetime (in COCCOC) amounted to 0.9 ns; the fluorescence lifetime (in CS(C)=O) is 1.92 ns; the fluorescence lifetime (in Cc1ccccc1) came to 1.36 ns; the fluorescence lifetime (in Cc1ccccc1C) came to 1.35 ns. In addition, the fluorescence lifetime was determined as 2.26 ns (in ClC(Cl)Cl); 3.1 ns (in ClCCl); 1.7 ns (in NC=O); 2.23 ns (in OC1CCCCC1); 2.95 ns (in OCCO); 1.42 ns (in c1ccccc1).
`c1ccc(N2c3ccc4ccccc4c3-c3c4ccccc4cn[n+]3[B-]2(c2ccccc2)c2ccccc2)cc1` returned a fluorescence lifetime (in Cc1ccccc1) of 2.56 ns.
In turn, `COC(=O)c1cc2c(cc3ccc4cccc5ccc2c3c45)[nH]1` had a fluorescence lifetime (in C1CCOC1) of 2.29 ns.
Take `N#C/C=C/c1ccc2ccc3cccc4ccc1c2c34`: the fluorescence lifetime by setting is: (in C1CCOC1) 3.2 ns; (in CC#N) 3 ns; (in CC(C)=O) 3.1 ns.
Turning to `Clc1ccc(/C=C/c2nc3ccccc3o2)cc1`, the fluorescence lifetime by setting is: (in C1CCCCC1) 0.2 ns; (in CO) 0.16 ns.
As for `Fc1ccc(N(c2ccc(F)cc2)c2ccc3c4cccc5c(N(c6ccc(F)cc6)c6ccc(F)cc6)ccc(c6cccc2c63)c54)cc1`, the fluorescence lifetime (in ClCCl) came to 4.26 ns.
Consider `FC(F)(F)C(F)(F)C(F)(F)C1=NC2=C(Oc3ccccc3)C=C3c4cc(Oc5ccccc5)c5nc(C(F)(F)C(F)(F)C(F)(F)F)nc6c(Oc7ccccc7)cc(c4c56)=C4C=C(Oc5ccccc5)C(=N1)C2C34` (configuration not stated), for which, where the note is “in C1CCOC1”, the fluorescence lifetime was 2.8 ns.
In turn, `c1ccc(-c2ccc(-c3nc(-n4c5ccccc5c5ccc6c7ccccc7n(-c7ccccc7)c6c54)nc(-n4c5ccccc5c5ccc6c7ccccc7n(-c7ccccc7)c6c54)n3)cc2)cc1` had a fluorescence lifetime (in Cc1ccccc1) of 8.7 ns.
Molecule `c1cc2c3c(c1)OCCCCCCOc1cccc(c1-c1c4ccccc4c-3c3ccccc13)OCCCCCCO2` showed a fluorescence lifetime (in C1CCCCC1) of 8.64 ns.
As to `c1ccc(-c2c3ccccc3c(-c3cncnc3)c3ccccc23)cc1`, the fluorescence lifetime (in CCO) was 3.5 ns and the fluorescence lifetime (in ClCCl) turned out to be 6.9 ns.
For the setting “in ClCCl”, `F[B-]1(F)n2c(c3ccccc3c2-c2ccccc2)C(c2ccccc2)=C2c3ccccc3C(c3ccccc3)=[N+]21` showed a fluorescence lifetime of 5.2 ns.
